The text below walks through data of patent US11174267B2, “Spiroindolinones and therapeutic uses thereof” (The Regents of the University of California, priority 2015, dated 2021).

Read-outs that look alike come from different tables or passages of the source. Where only a bound is given, the exact number is not on record here.

Series [1] deals with Candida glabrata. Nature of the series: EC50 in combination with fluconazole, Candida glabrata. The class given is cell-based. To be noted: [fluconazole] = 128 μg/mL. The source says:
(§1) Strains and growth condition. The wild-type Candida albicans strains used were SC5314 and CaSS1. Cdr1 heterozygous were from Merck Sharp & Dohme Corp. Double Barcoded (DBC) library of heterozygous Candida albicans mutants (version 2013A). Cdr1 deficient mutant was obtained by counterselection of the GRACE library strain on 5-Fluoroorotic Acid (5-FOA) containing plate. Clinical isolated resistant C. albicans were from Dr. David Rogers. Cryptococcus neoformans var. grubii H99 (ATCC 208821) and Candida glabrata BG2, a fluconazole-resistant clinical isolate, were used. Yeast strains were cultured at 30° C. in synthetic complete (SC) medium containing 2% glucose.
(§2) C. albicans was grown in SC medium overnight and then diluted to an effective OD600 of 0.0625. Serial ten-fold dilutions of the test compounds (0.15-1500 μM) were prepared in DMSO in 1.5 mL Eppendorf tubes. […] The plates were incubated in a rotary shaker/incubator at 30° C. for 16 h. The contents of each well was resuspended with a micropipettor and a 20 μL aliquot was added to a polystyrene cuvette and diluted with 680 μL of deionized water. The suspension was triturated again immediately before measuring the absorbance at 600 nm (OD600) for cell densities. EC50 values were determined by fitting to the Hill equation using the Excel-based tool ED50PLUS v1.0 (Mario H. Vargas) or using Mathematica. Similar procedures were used for Candida glabrata and Cryptococcus neoformans.
(§3) Because fungal drug-efflux ABC transporters are conserved, Cdr1 inhibitors that target the conserved regions of the pumps are expected to inhibit the drug efflux pumps in all fungi including C. albicans. […] Therefore, those spiroindolinones are candidates for combination antifungal therapy with azoles against invasive infections of not only C. albicans, but also other pathogenic fungi.

For series [2], the system named is NIH 3T3 cells. The series can be described thus: Cytotoxicity, LDH assay. The series is classed as cell-based. To be noted: concentrations up to 1.5 mM. As to the method: The cytotoxicity of spiroindoline Compounds 1, 8 and 25 were tested against NIH 3T3 cells at concentrations up to 1.5 mM (FIG. 13) using an LDH assay.
In series [3] the test system is susceptible strain (HLY4123) of C. albicans. Nature of the series: Dose-response with fluconazole (0.25 μg/mL) against susceptible strain. The series is classed as cell-based, Candida albicans. As to the method:
as §2

Series [4] relates to Cryptococcus neoformans. Nature of the series: EC50 in combination with fluconazole, Cryptococcus neoformans. The series is classed as cell-based. To be noted: [fluconazole] = 4 μg/mL.
Text: as §1, §2, §3

Series [5] concerns Resistant Candida albicans (clinical isolate-45). Nature of the series: EC50 in combination with fluconazole, resistant C. albicans. To be noted: C. albicans clinical isolate-45; [fluconazole] = 64 μg/mL; read-out: EC50 Resistant Candida albicans. The class given is cell-based.
Series [6] deals with C. albicans sterol α-demethylase (a.k.a. Erg11 or CYP51) (Candida albicans, UniProt P10613). The series can be described thus: Literature: inhibition of sterol α-demethylase by fluconazole. The class given is biochemical. To be noted: ten times the Ki, >90% inhibition expected.
Sequence of C. albicans sterol α-demethylase (a.k.a. Erg11 or CYP51) (P10613 whole entry): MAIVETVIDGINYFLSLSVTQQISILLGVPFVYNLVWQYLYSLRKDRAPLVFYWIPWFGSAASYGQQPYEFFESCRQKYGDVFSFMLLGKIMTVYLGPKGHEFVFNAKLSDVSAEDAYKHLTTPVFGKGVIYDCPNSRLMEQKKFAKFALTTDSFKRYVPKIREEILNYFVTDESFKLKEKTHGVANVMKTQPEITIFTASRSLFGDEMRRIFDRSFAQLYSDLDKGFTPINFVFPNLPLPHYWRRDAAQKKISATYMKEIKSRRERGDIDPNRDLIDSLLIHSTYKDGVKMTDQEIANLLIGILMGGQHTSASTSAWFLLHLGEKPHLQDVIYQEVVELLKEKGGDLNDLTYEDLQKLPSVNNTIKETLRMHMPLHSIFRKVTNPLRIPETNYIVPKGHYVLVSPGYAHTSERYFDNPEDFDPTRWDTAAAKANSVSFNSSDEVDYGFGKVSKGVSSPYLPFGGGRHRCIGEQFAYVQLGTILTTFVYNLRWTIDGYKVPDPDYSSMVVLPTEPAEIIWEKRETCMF
Series [7] has as its system resistant clinical isolates of C. albicans. Also on record: unit not given beside the values. To be noted: cited from earlier work.
The test system is the same in series [8]. Nature of the series: Screen of resistant clinical isolates, single dose, broth microdilution (growth OD600). The class given is cell-based, Candida albicans. As to conditions: fluconazole 64 μg/mL alone, 16 h in SC at 30° C. The source says: (Flowers, S. A., et al. Eukaryotic Cell 2012, 11, 1289-1299.) The strains grow at dramatically different rates.

The test system of series [9] is C. albicans strain HLY4123 and clinical isolates 26 and 45. Nature of the series: Checkerboard assay (MIC90, FIC index). The class given is cell-based, Candida albicans. To be noted: Candida albicans. As to the method: Checkerboard assays were carried out using four 24-well plates. The results on each plate were normalized by duplication of one row and one column with a row and column on another plate. C. albicans was grown in SC medium overnight and then diluted to an effective OD600 of 0.0625. Serial ten-fold dilutions of the test compounds (150 mM) were prepared in DMSO in 1.5 mL Eppendorf tubes. […] Concentrations of compound in rows 1-11 varied from 300 μM to 0.0003 nM; the last row 12 contained no compound. […] The plates were incubated in a rotary shaker/incubator at 30° C. for 16 h. The contents of each well was resuspended with a micropipettor and a 20 μL aliquot was added to a polystyrene cuvette and diluted with 680 μL of deionized water. The suspension was triturated again immediately before measuring the absorbance at 600 nm. The MIC90 values were determined as the lowest concentrations of the drugs (alone or in combination) that inhibited fungal growth by 90% compared with that of the drug-free wells.
In all of the strains tested, the FIC index was below 0.5, fitting the classical definition of synergy.

For series [10] the following is noted: in the presence of fluconazole; cited from earlier work.
Setting [11] is: Candida albicans, with fluconazole 0.25 μg/mL, strain HLY4123.
The mark [12] stands for this setting: with fluconazole 0.25 μg/mL, strain HLY4123.

With `Cc1c(Cl)ccc2c1NC(=O)[C@]21N[C@H](Cc2ccccc2)[C@@H]2C(=O)N(c3ccccc3)C(=O)[C@@H]21` (racemic) [Compound 8], the half-maximal effective concentration (EC50) was 1720 nM in series [1], 1 nM in series [3] (setting [11]), 11.3 µM in series [4] and 490 nM in series [5]. Moreover, the cytotoxicity entry in series [2] is on record as “weak to negligible cytotoxicity”.
With `OC(Cn1cncn1)(Cn1cncn1)c1ccc(F)cc1F` [fluconazole, reference compound], the “theoretical limit for fluconazole potency” value in series [6] is reported as “around 0.3 μM”. Also, the MICFlc in [7] (clinical isolate 15) is 16; in [7] (clinical isolate 16), 16; in [7] (clinical isolate 17), 32; in series [7] (clinical isolate 21), 32; in series [7] (clinical isolate 22), 32; in series [7] (clinical isolate 23), 32. Moreover, the MICFlc in series [7] (clinical isolate 25) is 32; in [7] (clinical isolate 26), 32; in series [7] (clinical isolate 30), 64; in [7] (clinical isolate 33) it was 64; in series [7] (clinical isolate 36) it was 64; in series [7] (clinical isolate 41) it was 128. Besides, the MICFlc in series [7] (clinical isolate 45) is 128. For the same molecule, the “Growth (OD600) +Fluc” value in series [8] (clinical isolate 15) is on record as 5.58; in series [8] (clinical isolate 16), 0.64; in series [8] (clinical isolate 17), 3.96; in series [8] (clinical isolate 21) it was 6.46; in [8] (clinical isolate 22), 3.27; in series [8] (clinical isolate 23), 6.77. The “Growth (OD600) +Fluc” value turned out to be 2.90 in series [8] (clinical isolate 25); 6.44 in series [8] (clinical isolate 26); 9.40 in [8] (clinical isolate 30); 7.38 in [8] (clinical isolate 33); 5.08 in [8] (clinical isolate 36); 9.47 in series [8] (clinical isolate 41). In addition, the “Growth (OD600) +Fluc” value in series [8] (clinical isolate 45) was 9.17; in series [8] (clinical isolate 49), 11.31. Also, the MIC90 in [9] (clinical isolate 26, fluconazole alone, read-out: MICFlc (MIC90)) amounted to 836 µM; in [9] (clinical isolate 26, with Compound 25, read-out: MICFlc (+cpd) (MIC90)), 105 µM; in series [9] (clinical isolate 45, fluconazole alone, read-out: MICFlc (MIC90)) it was 836 µM; in series [9] (clinical isolate 45, with Compound 25, read-out: MICFlc (+cpd) (MIC90)), 105 µM; in [9] (read-out: MIC90 for fluconazole, susceptible strain, Compound 25 present at 300 nM), 0.125 µM; in series [9] (strain HLY4123, fluconazole alone, read-out: MICFlc (MIC90)), 0.5 µM. Besides, the MIC90 in series [9] (strain HLY4123, with Compound 25, read-out: MICFlc (+cpd) (MIC90)) stood at 0.125 µM.
For `Cc1c(Cl)ccc2c1NC(=O)[C@@]21[C@H]2C(=O)N(c3ccccc3)C(=O)[C@H]2[C@H]2CN(C(=O)OC(C)(C)C)CCN21` (racemic) [Compound 9, (±)-tert-Butyl (3R,3a′R,3b'S,9a'S)-6-chloro-7-methyl-1′,2,3′-trioxo-2′-phenyl-2′,3′,3a′,3b′,4′,6′,7′,9a′-octahydrospiro[indoline-3,9′-pyrrolo[3′,4′:3,4]pyrrolo[1,2-a]pyrazine]-5′(1′H)-carboxylate], the values for the EC50 in series [3] (setting [11]) and in series [3] (setting [12]) were 5.6 nM and 6 to 8 nM, respectively. In addition, the “times more potent than compound 33” value in series [3] (ratio of EC50s, diastereomers) is listed as “over 35”.
For `Cc1c(Cl)ccc2c1NC(=O)[C@@]21[C@H]2C(=O)N(c3ccccc3)C(=O)[C@H]2[C@H]2CNCCN21` [Compound 20], in series [3] (setting [12]), the “activity (in words)” value is listed as “low activity”.
With `CN[C@H]1CC[C@@H](c2ccc(Cl)c(Cl)c2)c2ccccc21` [sertraline], the MIC in [10] was at least 0.5 µg/mL.

The term EC50 denotes the concentration at which the effect is half-maximal. One may read the MIC90 as the lowest concentration that inhibits either 90% of growth or 90% of the strains tested, depending on the study. In general, MIC refers to the lowest concentration found to suppress growth.
